According to paper PMC5839718 (The Journal of General Physiology, 2018):
Read-outs that look alike come from different tables or passages of the source. Values belong to the compound of their own block, whether it stands above or below them.

Experiments:
[1] = biological target: α4β2 nAChR from β-6-α-9-β-6-α and α4 (1:1) (Homo sapiens, UniProt P17787+P43681); assay: two-electrode voltage-clamp, oocytes, β-6-α-9-β-6-α and α4; type: cell-based; conditions: β-6-α-9-β-6-α + α4
[2] = biological target: α4β2 nAChR from β-0a-α and α4 (1:1) (Homo sapiens, UniProt P17787+P43681); assay: two-electrode voltage-clamp, oocytes, β-0a-α and α4; type: cell-based; conditions: β-0a-α + α4; biphasic fit
[3] = biological target: α4β2 nAChR from β-21a-α-β-α-α^VFL (Homo sapiens, UniProt P17787+P43681, H142V/Q150F/T152L); assay: two-electrode voltage-clamp, oocytes, pentameric β-21a-α-β-α-α^VFL; type: cell-based
[4] = biological target: α4β2 nAChR from β-6-α and α4^VFL (1:25) (Homo sapiens, UniProt P17787+P43681, H142V/Q150F/T152L); assay: two-electrode voltage-clamp, oocytes, β-6-α and α4^VFL 1:25; type: cell-based; conditions: β-6-α + α4^VFL 1:25; biphasic fit
[5] = biological target: (α4)3(β2)2 nAChR from α4 and β2 (10:1) (Homo sapiens, UniProt P17787+P43681); assay: two-electrode voltage-clamp, X. laevis oocytes, α4 and β2 cRNA 10:1; type: cell-based
[6] = biological target: α4β2 nAChR from β-3a-α alone (Homo sapiens, UniProt P17787+P43681); assay: two-electrode voltage-clamp, oocytes, β-3a-α alone; type: cell-based
[7] = biological target: α4β2 nAChR from β-6-α-9-β-6-α and α4^VFL (1:1) (Homo sapiens, UniProt P17787+P43681, H142V/Q150F/T152L); assay: two-electrode voltage-clamp, oocytes, β-6-α-9-β-6-α and α4^VFL 1:1; type: cell-based
[8] = biological target: α4β2 nAChR from β-6a-α and α4 (1:1) (Homo sapiens, UniProt P17787+P43681); assay: two-electrode voltage-clamp, oocytes, β-6a-α and α4; type: cell-based; conditions: β-6a-α + α4; biphasic fit
[9] = biological target: α4β2 nAChR from β-6-α-9-β-6-α and α4^VFL (1:25) (Homo sapiens, UniProt P17787+P43681, H142V/Q150F/T152L); assay: two-electrode voltage-clamp, oocytes, β-6-α-9-β-6-α and α4^VFL 1:25; type: cell-based; conditions: β-6-α-9-β-6-α + α4^VFL 1:25; biphasic fit
[10] = biological target: α4β2 nAChR from β-3a-α and α4 (1:1) (Homo sapiens, UniProt P17787+P43681); assay: two-electrode voltage-clamp, oocytes, β-3a-α and α4; type: cell-based; conditions: β-3a-α + α4; biphasic fit
Ls-AChBP = conditions: read-out: NS9283 Ki at Ls-AChBP; ref Olsen et al., 2014; cited from earlier work
[11] = test system: (α4)2(β2)3 nAChR from α4 and β2 (1:4); conditions: 10 µM ACh, ref Timmermann et al. (2012); cited from earlier work

α4β2 nAChR from β-21a-α-β-α-α^VFL, sequence (P17787 26-502): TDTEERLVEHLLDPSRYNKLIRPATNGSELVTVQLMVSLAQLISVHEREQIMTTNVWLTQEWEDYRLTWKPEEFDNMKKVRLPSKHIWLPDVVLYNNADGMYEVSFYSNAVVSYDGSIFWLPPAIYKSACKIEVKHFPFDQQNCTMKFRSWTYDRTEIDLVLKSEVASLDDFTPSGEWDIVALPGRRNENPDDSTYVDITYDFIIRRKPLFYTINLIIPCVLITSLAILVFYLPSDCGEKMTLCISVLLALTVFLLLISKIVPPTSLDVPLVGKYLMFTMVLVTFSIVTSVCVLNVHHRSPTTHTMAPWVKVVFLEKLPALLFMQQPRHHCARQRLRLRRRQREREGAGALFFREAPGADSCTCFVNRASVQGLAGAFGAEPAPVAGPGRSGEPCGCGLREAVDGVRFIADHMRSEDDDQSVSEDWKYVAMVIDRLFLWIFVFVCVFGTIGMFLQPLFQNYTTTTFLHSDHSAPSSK
α4β2 nAChR from β-21a-α-β-α-α^VFL, sequence (P43681 27-627, stated change not applied): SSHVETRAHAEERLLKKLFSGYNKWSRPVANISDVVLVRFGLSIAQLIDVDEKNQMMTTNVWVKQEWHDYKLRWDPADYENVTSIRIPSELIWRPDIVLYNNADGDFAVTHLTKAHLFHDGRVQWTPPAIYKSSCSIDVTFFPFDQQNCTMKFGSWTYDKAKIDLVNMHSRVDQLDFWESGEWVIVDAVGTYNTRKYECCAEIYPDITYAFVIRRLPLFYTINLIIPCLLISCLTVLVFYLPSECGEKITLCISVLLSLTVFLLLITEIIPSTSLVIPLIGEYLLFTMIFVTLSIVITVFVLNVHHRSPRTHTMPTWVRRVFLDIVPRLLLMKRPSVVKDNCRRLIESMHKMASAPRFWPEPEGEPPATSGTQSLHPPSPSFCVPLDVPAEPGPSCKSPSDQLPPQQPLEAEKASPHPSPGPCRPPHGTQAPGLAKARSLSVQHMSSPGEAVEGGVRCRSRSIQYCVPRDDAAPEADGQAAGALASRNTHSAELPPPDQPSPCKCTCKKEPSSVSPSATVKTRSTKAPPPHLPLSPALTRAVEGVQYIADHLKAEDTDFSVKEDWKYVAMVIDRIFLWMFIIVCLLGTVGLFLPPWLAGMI
α4β2 nAChR from β-21a-α-β-α-α^VFL, sequence (P17787 26-502): as the sequence (P17787 26-502) above
α4β2 nAChR from β-21a-α-β-α-α^VFL, sequence (P43681 27-627, stated change not applied): as the sequence (P43681 27-627, stated change not applied) above
α4β2 nAChR from β-21a-α-β-α-α^VFL, sequence (P43681 27-627 H142V/Q150F/T152L): as the sequence (P43681 27-627, stated change not applied) above, with H116V, Q124F, T126L counted along it
(α4)3(β2)2 nAChR from α4 and β2 (10:1), sequence (P43681 27-627): as the sequence (P43681 27-627, stated change not applied) above
(α4)3(β2)2 nAChR from α4 and β2 (10:1), sequence (P17787 26-502): as the sequence (P17787 26-502) above
α4β2 nAChR from β-6-α-9-β-6-α and α4^VFL (1:1), sequence (P17787 26-502): as above
α4β2 nAChR from β-6-α-9-β-6-α and α4^VFL (1:1), sequence (P43681 27-627, stated change not applied): as the sequence (P43681 27-627, stated change not applied) above
α4β2 nAChR from β-6-α-9-β-6-α and α4^VFL (1:1), sequence (P43681 27-627 H142V/Q150F/T152L): as the sequence (P43681 27-627, stated change not applied) above, with H116V, Q124F, T126L counted along it
α4β2 nAChR from β-6-α-9-β-6-α and α4^VFL (1:25), sequence (P17787 26-502): as the sequence (P17787 26-502) above
α4β2 nAChR from β-6-α-9-β-6-α and α4^VFL (1:25), sequence (P43681 27-627, stated change not applied): as the sequence (P43681 27-627, stated change not applied) above
α4β2 nAChR from β-6-α-9-β-6-α and α4^VFL (1:25), sequence (P17787 26-502): as the sequence (P17787 26-502) above
α4β2 nAChR from β-6-α-9-β-6-α and α4^VFL (1:25), sequence (P43681 27-627, stated change not applied): as the sequence (P43681 27-627, stated change not applied) above
α4β2 nAChR from β-6-α-9-β-6-α and α4^VFL (1:25), sequence (P43681 34-627 H142V/Q150F/T152L limits assumed): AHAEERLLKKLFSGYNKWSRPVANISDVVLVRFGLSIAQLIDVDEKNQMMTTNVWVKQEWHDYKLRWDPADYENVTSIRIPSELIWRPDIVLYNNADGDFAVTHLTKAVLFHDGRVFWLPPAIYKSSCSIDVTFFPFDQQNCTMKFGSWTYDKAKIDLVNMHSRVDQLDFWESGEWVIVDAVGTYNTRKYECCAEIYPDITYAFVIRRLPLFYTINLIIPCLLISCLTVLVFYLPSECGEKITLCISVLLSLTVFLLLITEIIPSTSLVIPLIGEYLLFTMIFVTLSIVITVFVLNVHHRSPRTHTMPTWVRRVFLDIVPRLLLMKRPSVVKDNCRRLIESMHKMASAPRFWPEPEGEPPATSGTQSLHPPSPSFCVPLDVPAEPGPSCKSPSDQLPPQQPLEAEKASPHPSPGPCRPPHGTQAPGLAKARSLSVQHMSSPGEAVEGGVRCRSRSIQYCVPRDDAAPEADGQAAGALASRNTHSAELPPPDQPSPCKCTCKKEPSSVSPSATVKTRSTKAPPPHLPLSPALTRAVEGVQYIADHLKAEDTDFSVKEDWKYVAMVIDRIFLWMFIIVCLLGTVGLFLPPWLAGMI

mean AChmax-evoked currents [1]: 1–2 μA
ACh Frac (first component fraction) ([1]; biphasic fit): 0.035 ± 0.020
ACh Frac (first component fraction) [2]: 0.053 ± 0.028
Emax ([3]; read-out: ACh Emax): 105 ± 1%
ACh Frac (first component fraction) ([3]; β-21a-α-β-α-α^VFL, biphasic fit): 0.59 ± 0.07
ACh Frac (first component fraction) [4]: 0.39 ± 0.05
Emax ([5]; read-out: ACh Emax): 102 ± 1%
ACh Frac (first component fraction) ([5]; α4+β2 10:1, biphasic fit): 0.11 ± 0.03
Emax ([6]; read-out: ACh Emax): 103 ± 1%
ACh Frac (first component fraction) ([6]; β-3a-α alone, biphasic fit): 0.64 ± 0.11
ACh Frac (first component fraction) ([7]; β-6-α-9-β-6-α + α4^VFL 1:1, biphasic fit): 0.41 ± 0.09
ACh Frac (first component fraction) [8]: 0.059 ± 0.018
ACh Frac (first component fraction) [9]: 0.40 ± 0.12
ACh Frac (first component fraction) [10]: 0.11 ± 0.02
Compound: CC(=O)OCC[N+](C)(C)C [ACh, acetylcholine]

EC50 [3]: 5.01 µM
Emax ([3]; read-out: NS9283 Emax): 48 ± 5%
NS9283 E31.6 µM ([3]; β-21a-α-β-α-α^VFL, […] NS9283 + 10 µM ACh, % change from AChcontrol current): 41 ± 4%
EC50 [5]: 5.01 µM
Emax ([5]; read-out: NS9283 Emax): 860 ± 60%
EC50 ([7]; NS9283 pEC50, β-6-α-9-β-6-α + α4^VFL 1:1, coapplied with 10 µM ACh): 10 µM
Compound: N#Cc1cccc(-c2nc(-c3cccnc3)no2)c1 [NS9283, 3-(3-(pyridine-3-yl)-1,2,4-oxadiazol-5-yl)benzonitrile]
Ki (Ls-AChBP): 67 µM
NS9283 effect on AChcontrol-evoked current amplitudes at […] or higher [11]: inhibition
